Assay results taken from publication PMC12197660 (Viruses, 2025).
≈ marks a conversion by molar mass, not a printed value. Where “and” joins values, the source holds several entries; their conditions need not be identical. Identical values can stand only once. Like-named read-outs stand apart in the source and are kept apart here.

Assays:
[1] = Radiolabeled metabolism and excretion in rats; format: in vivo; conditions: for Share of radioactivity in AUC-pooled plasma: analyte after IV RDV
Solubility (PBS) = format: physicochemical; conditions: aqueous buffer; PBS; read-out: Solubility (PBS)
LogD = format: physicochemical
[2] = Permeability (MDCK A-to-B); format: in vitro ADME, canine; conditions: dog, MDCK-MDR1, pH 7.4; A-to-B; read-out: Permeability (MDCK A-to-B)
plasma protein = assay: Plasma protein binding; format: in vitro ADME, mouse, rat, dog, monkey, and human; conditions: range over mouse, rat, dog, monkey, and human
[3] = Plasma stability (Table 1, across species); format: in vitro ADME, mouse, rat, dog, monkey, and human
[4] = Intestinal (GI) S9 fraction stability; format: in vitro ADME, rat, dog, monkey, and human; conditions: for S9 Stability, Intestinal: assessed in rat, dog, monkey, and human
[5] = Hepatic S9 fraction stability; format: in vitro ADME, rat, dog, monkey, and human; conditions: for S9 Stability, Hepatic: assessed in rat, dog, monkey, and human
[6] = test system: OATP1B1/3, P-gp, BCRP, ENT1/2, CNT3; assay: Transporter substrate assessment; format: in vitro ADME, human
[7] = Plasma and PBMC PK after IV RDV 10 mg/kg (Table 2); format: in vivo, cynomolgus monkeys; conditions: N = 3; for half-life: cynomolgus monkey, in vivo, iv, 10 mg/kg
[8] = Oral ODV PK in portal-vein-cannulated monkey; format: in vivo, cynomolgus monkey; conditions: for Time of plasma Cmax in both portal and systemic circulation: analyte after oral ODV 14.4 mg/kg, single monkey
[9] = Microautoradiography (MARG) of lung and trachea; format: in vivo, Sprague Dawley rats; parameters: Radioactivity in Blood vessels / Radioactivity in Trachea (representative) / Radioactivity in Bronchus (cartilage) / Radioactivity in Bronchus (smooth muscle) / Radioactivity in Bronchus (epithelium) / Radioactivity in Bronchioles / Radioactivity in Alveoli wall: key: +++: moderate levels of silver grains present; ++: low levels of silver grains present; +: background levels of silver grains present; conditions: [3H] compound, 30 min IV infusion 10 mg/kg (3700 µCi/kg), 1 h after infusion; per animal; for Radioactivity in Alveoli sac: key: +++: moderate levels of silver grains present; ++: low levels of silver grains present; +: background levels of silver grains present; for Radioactivity in Blood vessels: key: +++: moderate levels of silver grains present; ++: low levels of silver grains present; +: background levels of silver grains present; for Radioactivity in Bronchioles: key: +++: moderate levels of silver grains present; ++: low levels of silver grains present; +: background levels of silver grains present; for Radioactivity in Bronchus (cartilage): key: +++: moderate levels of silver grains present; ++: low levels of silver grains present; +: background levels of silver grains present
adenosine deaminase = conditions: cited from earlier work
[10] = cynomolgus monkey; cited from earlier work
[11] = human; cited from earlier work
[12] = mean ± SD, N = 3, cited from earlier work
[13] = humans, cited from earlier work
[14] = cited from earlier work
[15] = GS-441524 plasma PK across species; conditions: for half-life: BALB/c (mouse), Sprague Dawley (rat), beagle (dog)
[16] = Plasma stability, cynomolgus monkey plasma; format: in vitro ADME; conditions: cynomolgus monkey plasma, 2 µM, 240 min incubation
[17] = Plasma stability, human plasma; format: in vitro ADME; conditions: human plasma, 2 µM, 240 min incubation
[18] = test system: hydrolases (CatA, CES-1/2, HINT1); assay: Enzyme hydrolysis phenotype; format: in vitro ADME
[19] = QWBA tissue distribution of radioactivity; format: in vivo; conditions: oral [14C]ODV 200 mg/kg, rats
[20] = assessed in mouse, rat, dog, monkey, and human
[21] = analyte in plasma after IV RDV 10 mg/kg 30-min infusion, mean ± SD, read-out: T1/2 in plasma (converted)
[22] = GS-441524 IV 30 min infusion 20 mg/kg
[23] = ODV oral 11.6 mg/kg (9.4 mg-eq/kg)

With `N#CC1(c2ccc3c(=O)[nH]cnn23)OC(CO)C(O)C1O` (centres unmarked) [Deaminated nucleoside] the “Level in feces, fold lower than GS-441524” value ([1]; minor metabolite after oral ODV, rats and humans) was 5- to 10 fold.
For `N#C[C@@]1(c2ccc3c(N)ncnn23)O[C@H](CO)[C@@H](O)[C@H]1O` [GS-441524], the solubility (Solubility (PBS)) was 0.0265 mg/mL (≈ 91 µM), the logD (LogD) was less than 0.3 and the Papp A→B at 120 min [2] was 1.6 nm/s. For the same compound, the “Plasma protein binding (% free)” value (plasma protein) was 85–99 % free, the Plasma stability [3, 20] was “Stable” and the “S9 Stability, Intestinal” value [4] was “Stable”. The “S9 Stability, Hepatic” value [5] was “Stable”, the “Transporter substrate (text)” value [6] was “substrate for P-gp” and the Transporter substrate ([6]; human) was “BCRP/P-gp ENT1/2/CNT3”. The half-life [7, 21] was 16.1 ± 4 h, the “Time of plasma Cmax in both portal and systemic circulation” value [8] was 1 h and the “Radioactivity in Alveoli sac” value [9] was “++ (2×) and +”. For the same compound, the “Radioactivity in Alveoli wall” value [9] was “+++”, the “Radioactivity in Blood vessels” value [9] was “+++” and the “Radioactivity in Bronchioles” value [9] was “+++”. The “Radioactivity in Bronchus (cartilage)” value [9] was “++ and +++”, the “Radioactivity in Bronchus (epithelium)” value [9] was “++ and +++” and the “Radioactivity in Bronchus (smooth muscle)” value [9] was “++”. For the same compound, the “Radioactivity in Trachea (representative)” value [9] was “++”, the “Share of radioactivity in AUC-pooled plasma” value ([1]; rats) was “approximately 70%” and the “Share of total radioactivity in plasma” value ([1]; analyte after oral ODV, rats) was greater than 97%. The “Share of total sample radioactivity in feces” value ([1]; analyte after oral ODV, rats) was ~ 85%, the Adenosine deaminase substrate (adenosine deaminase) was “weak substrate for adenosine deaminase” and the Stability in plasma [10] was “stable”. For the same compound, the Stability in plasma [11] was “stable”, the “Plasma GS-441524 AUC0–24h” value [12, 22] was 124,000 ± 11,000 nM·h and the “Plasma GS-441524 Tmax” value [12, 22] was 0.516 ± 0.058 h. For the same compound, the “Share of total radioactivity in plasma” value ([13]; analyte after IV RDV) was ~ 53%, the “Share of total radioactivity in plasma” value ([13]; analyte after oral ODV) was greater than 97% and the “Share of total sample radioactivity in feces” value ([13]; analyte after oral ODV) was 98%. The “Oral bioavailability of GS-441524, estimated” value ([14]; oral solution (55 °C) of GS-441524, human PK) was less than 15%, the half-life ([15]; plasma, iv) was 0.7 to 3.4 h and the half-life ([15]; plasma, po) was 1.4 to 4.2 h. For the same compound, the Volume of distribution ([15]; IV, across species) was “moderate volume of distribution”, the clearance ([15]; IV, across species) was “low to moderate clearance” and the bioavailability ([15]; cynomolgus monkey, plasma, po) was roughly 5%.
In the case of `N#C[C@@]1(c2ccc3c(N)ncnn23)O[C@H](COP(=O)(O)OP(=O)(O)OP(=O)(O)O)[C@@H](O)[C@H]1O` [GS-443902], the “T1/2 in PBMC” value ([7]; analyte in PBMC after IV RDV 10 mg/kg 30-min infusion) is reported as 29.4 ± 3.0 h and the half-life ([7]; analyte in PBMC after IV RDV 10 mg/kg 30-min infusion, read-out: T1/2 in PBMC (converted)) is reported as 29 h.
In the case of `C[C@H](NP(=O)(O)OC[C@H]1O[C@@](C#N)(c2ccc3c(N)ncnn23)[C@H](O)[C@@H]1O)C(=O)O` [GS-704277], the “Plasma protein binding (% free)” value (plasma protein) is reported as 95–100 % free, the Plasma stability ([3]; assessed in monkey and human) is reported as “Stable ^d” and the Stability in plasma [16] is reported as “stable”. For the same compound, the Stability in plasma [17] was “stable”, the Transporter substrate ([6]; human) was “OATP1B1/3” and the Enzyme hydrolysis phenotype [18] was “HINT1”. For the same compound, the half-life [7, 21] was 0.56 ± 0.01 h and the “Share of radioactivity in AUC-pooled plasma” value ([1]; rats) was roughly 20%.
Compound `CC(C)C(=O)OC[C@H]1O[C@@](C#N)(c2ccc3c(N)ncnn23)[C@H](O)[C@@H]1O` [ODV, obeldesivir] has a solubility (Solubility (PBS)) of roughly 1 mg/mL (≈ 2770 µM), a logD (LogD) of 0.9 and a Papp A→B at 120 min [2] of 18 nm/s. For the same compound, the “Plasma protein binding (% free)” value (plasma protein) was 56–76 % free, the Plasma stability [3, 20] was “Unstable (stable in dog)” and the “Stability in GI S9 fractions” value ([4]; PMSF-free GI S9 from cynomolgus monkeys and humans, 2 µM) was “poor”. The “S9 Stability, Intestinal” value [4] was “Unstable”, the “Stability in Hep S9 fractions” value ([5]; Hep S9 from cynomolgus monkeys and humans, 2 µM) was “poor” and the “S9 Stability, Hepatic” value [5] was “Unstable”. For the same compound, the Transporter substrate [6] was “BCRP/P-gp”, the “Transporter substrate (text)” value [6] was “substrate for both BCRP and P-gp transporters” and the Enzyme hydrolysis phenotype [18] was “CES-1/2”. For the same compound, the “Time of plasma Cmax in both portal and systemic circulation” value [8] was 0.25 h, the “Hepatic extraction of intact ODV absorbed” value ([8]; portal vs systemic plasma ODV exposures, oral ODV 14.4 mg/kg) was “near complete hepatic extraction” and the “Persistence of radioactivity in tissues” value [19] was “little [^14C]ODV-related radioactivity was detected after 24 h”. For the same compound, the “Time by which broad distribution of drug-associated radioactivity was observed” value [19] was no more than 0.25 h, the “Fecal excretion, of administered dose, mean” value ([1]; oral ODV, rats) was 52% and the “Total mean [14C] dose recovery” value ([1]; oral ODV, rats) was “greater than 90%”. The “Urinary excretion, mean” value ([1]; oral ODV, rats) was 33%, the “Plasma GS-441524 AUC0–24h” value [12, 23] was 21,600 ± 11,000 nM·h and the “Plasma GS-441524 T1/2” value [12, 23] was 2.62 ± 0.55 h. For the same compound, the “Plasma GS-441524 Tmax” value [12, 23] was 1.67 ± 0.58 h, the Cmax ([12]; read-out: Plasma GS-441524 Cmax, ODV oral 11.6 mg/kg (9.4 mg-eq/kg)) was 7.57 ± 6.07 µM and the “Fecal excretion, of administered dose, mean” value ([13]; oral ODV) was 32%. For the same compound, the “Total mean [14C] dose recovery” value ([13]; oral ODV) was “greater than 90%”, the “Urinary excretion, mean” value ([13]; oral ODV) was 58% and the “Oral bioavailability of GS-441524, estimated” value ([14]; clinical ODV 350 mg oral tablet) was 41% to 50.
